Results taken from US7781591B2, “Substituted 3-cyanopyridines as protein kinase inhibitors” (Wyeth LLC, priority 2006, dated 2010).

target: T1, human PKCθ full length enzyme (Homo sapiens, UniProt Q04759); experiment: PKCθ IMAP assay (fluorescence polarization); type: biochemical; conditions: human PKCθ full length enzyme, IMAP; average value; read-out: IC50 PKCθ IMAP
T1 construct: human PKCθ full length enzyme (Panvera Cat# P2996); purchased Panvera P2996
T1 sequence (Q04759 whole entry): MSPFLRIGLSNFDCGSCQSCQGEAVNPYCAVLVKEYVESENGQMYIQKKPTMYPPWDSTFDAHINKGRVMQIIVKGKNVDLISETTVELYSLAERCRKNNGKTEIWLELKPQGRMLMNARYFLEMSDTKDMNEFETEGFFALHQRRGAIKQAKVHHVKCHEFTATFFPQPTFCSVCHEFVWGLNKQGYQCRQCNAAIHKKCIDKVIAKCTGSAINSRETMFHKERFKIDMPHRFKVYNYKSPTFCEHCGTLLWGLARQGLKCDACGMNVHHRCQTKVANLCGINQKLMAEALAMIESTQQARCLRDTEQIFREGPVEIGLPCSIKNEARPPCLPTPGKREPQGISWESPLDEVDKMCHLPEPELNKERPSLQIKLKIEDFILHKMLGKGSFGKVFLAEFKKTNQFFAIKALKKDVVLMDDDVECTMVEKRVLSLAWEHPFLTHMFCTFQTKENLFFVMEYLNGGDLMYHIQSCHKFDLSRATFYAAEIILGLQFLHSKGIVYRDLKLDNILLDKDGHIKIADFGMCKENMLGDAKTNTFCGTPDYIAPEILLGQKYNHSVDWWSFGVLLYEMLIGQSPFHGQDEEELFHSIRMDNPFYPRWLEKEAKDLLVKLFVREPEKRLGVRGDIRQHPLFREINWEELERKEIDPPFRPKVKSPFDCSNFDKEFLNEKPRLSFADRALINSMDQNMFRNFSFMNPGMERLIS

| IC50 [nM] | Structure (SMILES) |
| --- | --- |
| 6 | Cc1c(Nc2c(C#N)cncc2-c2cc3cc(CN(C)C)ccc3o2)ccc2[nH]ccc12 [Compound 382, 5-{5-[(dimethylamino)methyl]-1-benzofuran-2-yl}-4-[(4-methyl-1H-indol-5-yl)amino]nicotinonitrile] |
| 13 | Cc1c(Nc2c(C#N)cncc2-c2cc3cc(CN4CCOCC4)ccc3o2)ccc2[nH]ccc12 [Compound 388, 4-[(4-methyl-1H-indol-5-yl)amino]-5-[5-(morpholin-4-ylmethyl)-1-benzofuran-2-yl]nicotinonitrile] |
| 3 | Cc1c(Nc2c(C#N)cncc2-c2cc3cc(CN4CCCC4)ccc3o2)ccc2[nH]ccc12 [Compound 389, 4-[(4-methyl-1H-indol-5-yl)amino]-5-[5-(pyrrolidin-1-ylmethyl)-1-benzofuran-2-yl]nicotinonitrile] |
| 1 | Cc1c(Nc2c(C#N)cncc2-c2cc3cc(CNCCN4CCCC4)ccc3o2)ccc2[nH]ccc12 [Compound 390, 4-[(4-methyl-1H-indol-5-yl)amino]-5-(5-{[(2-pyrrolidin-1-ylethyl)amino]methyl}-1-benzofuran-2-yl)nicotinonitrile] |
| 1 | Cc1c(Nc2c(C#N)cncc2-c2cc3cc(CNCC4CCN(C)CC4)ccc3o2)ccc2[nH]ccc12 [Compound 391, 4-[(4-methyl-1H-indol-5-yl)amino]-5-[5-({[(1-methylpiperidin-4-yl)methyl]amino}methyl)-1-benzofuran-2-yl]nicotinonitrile] |
| 5 | Cc1c(Nc2c(C#N)cncc2-c2cc3cc(CN4CCC(CO)CC4)ccc3o2)ccc2[nH]ccc12 [Compound 392, 5-(5-{[4-(hydroxymethyl)piperidin-1-yl]methyl}-1-benzofuran-2-yl)-4-[(4-methyl-1H-indol-5-yl)amino]nicotinonitrile] |
| 1 | Cc1c(Nc2c(C#N)cncc2-c2cc3cc(CN4CCC(N5CCCC5)CC4)ccc3o2)ccc2[nH]ccc12 [Compound 393, 4-[(4-methyl-1H-indol-5-yl)amino]-5-{5-[(4-pyrrolidin-1-ylpiperidin-1-yl)methyl]-1-benzofuran-2-yl}nicotinonitrile] |
| 1 | Cc1c(Nc2c(C#N)cncc2-c2cc3cc(CN4CCC(N5CCCCC5)CC4)ccc3o2)ccc2[nH]ccc12 [Compound 394, 5-[5-(1,4′-bipiperidin-1′-ylmethyl)-1-benzofuran-2-yl]-4-[(4-methyl-1H-indol-5-yl)amino]nicotinonitrile] |
| 4 | Cc1c(Nc2c(C#N)cncc2-c2cc3cc(CN4CCC(N5CCOCC5)CC4)ccc3o2)ccc2[nH]ccc12 [Compound 395, 4-[(4-methyl-1H-indol-5-yl)amino]-5-{5-[(4-morpholin-4-ylpiperidin-1-yl)methyl]-1-benzofuran-2-yl}nicotinonitrile] |
| 2 | Cc1c(Nc2c(C#N)cncc2-c2cc3cc(CN4CCN(CCN(C)C)CC4)ccc3o2)ccc2[nH]ccc12 [Compound 396, 5-[5-({4-[2-(dimethylamino)ethyl]piperazin-1-yl}methyl)-1-benzofuran-2-yl]-4-[(4-methyl-1H-indol-5-yl)amino]nicotinonitrile] |
| 13 | Cc1c(Nc2c(C#N)cncc2-c2cc3cc(CN4CCN(c5ccccn5)CC4)ccc3o2)ccc2[nH]ccc12 [Compound 397, 4-[(4-methyl-1H-indol-5-yl)amino]-5-{5-[(4-pyridin-2-ylpiperazin-1-yl)methyl]-1-benzofuran-2-yl}nicotinonitrile] |

The remaining lines, values behind:

| Structure (SMILES) | IC50 [nM] |
| --- | --- |
| COc1cc(-c2cncc(C#N)c2Nc2ccc3[nH]ccc3c2C)ccc1OCCN1CCCCC1 [Compound 376, 5-[3-methoxy-4-(2-piperidin-1-ylethoxy)phenyl]-4-[(4-methyl-1H-indol-5-yl)amino]nicotinonitrile] | 20 |
| COc1cc(-c2cncc(C#N)c2Nc2ccc3[nH]ccc3c2C)ccc1OCCN1CCN(C)CC1 [Compound 377, 5-{3-methoxy-4-[2-(4-methylpiperazin-1-yl)ethoxy]phenyl}-4-[(4-methyl-1H-indol-5-yl)amino]nicotinonitrile] | 10 |
| COc1cc(-c2cncc(C#N)c2Nc2ccc3[nH]ccc3c2C)ccc1OCCN1CCOCC1 [Compound 378, 5-[3-methoxy-4-(2-morpholin-4-ylethoxy)phenyl]-4-[(4-methyl-1H-indol-5-yl)amino]nicotinonitrile] | 30 |
| COc1ccc(-c2cncc(C#N)c2Nc2ccc3[nH]ncc3c2)cc1OC [Compound 379, 5-(3,4-dimethoxyphenyl)-4-(1H-indazol-5-ylamino)nicotinonitrile] | 2530 |
| Cc1c(Nc2c(C#N)cncc2-c2cccc(Cl)c2Cl)ccc2[nH]ccc12 [Compound 380, 5-(2,3-dichlorophenyl)-4-[(4-methyl-1H-indol-5-yl)amino]nicotinonitrile] | 50 |
| Cc1c(Nc2c(C#N)cncc2-c2ccc(Br)cc2F)ccc2[nH]ccc12 [Compound 381, 5-(4-bromo-2-fluorophenyl)-4-[(4-methyl-1H-indol-5-yl)amino]nicotinonitrile] | 20 |
| Cc1c(Nc2c(C#N)cncc2-c2cc3cc(CNCCO)ccc3o2)ccc2[nH]ccc12 [Compound 383, 5-(5-{[(2-hydroxyethyl)amino]methyl}-1-benzofuran-2-yl)-4-[(4-methyl-1H-indol-5-yl)amino]nicotinonitrile] | 2 |
| Cc1c(Nc2c(C#N)cncc2-c2cc3cc(CNCCCO)ccc3o2)ccc2[nH]ccc12 [Compound 384, 5-(5-{[(3-hydroxypropyl)amino]methyl}-1-benzofuran-2-yl)-4-[(4-methyl-1H-indol-5-yl)amino]nicotinonitrile] | 2 |
| Cc1c(Nc2c(C#N)cncc2-c2cc3cc(CNCC(O)CO)ccc3o2)ccc2[nH]ccc12 (stereo not shown) [Compound 385, 5-(5-{[(2,3-dihydroxypropyl)amino]methyl}-1-benzofuran-2-yl)-4-[(4-methyl-1H-indol-5-yl)amino]nicotinonitrile] | 2 |
| Cc1c(Nc2c(C#N)cncc2-c2cc3cc(CN(C)CC(O)CO)ccc3o2)ccc2[nH]ccc12 (stereo not shown) [Compound 386, 5-(5-{[(2,3-dihydroxypropyl)(methyl)amino]methyl}-1-benzofuran-2-yl)-4-[(4-methyl-1H-indol-5-yl)amino]nicotinonitrile] | 5 |
| Cc1c(Nc2c(C#N)cncc2-c2cc3cc(CNCc4ccccn4)ccc3o2)ccc2[nH]ccc12 [Compound 398, 4-[(4-methyl-1H-indol-5-yl)amino]-5-(5-{[(pyridin-2-ylmethyl)amino]methyl}-1-benzofuran-2-yl)nicotinonitrile] | 3 |
| Cc1c(Nc2c(C#N)cncc2-c2cc3cc(CNCc4cccnc4)ccc3o2)ccc2[nH]ccc12 [Compound 399, 4-[(4-methyl-1H-indol-5-yl)amino]-5-(5-{[(pyridin-3-ylmethyl)amino]methyl}-1-benzofuran-2-yl)nicotinonitrile] | 2 |
| Cc1c(Nc2c(C#N)cncc2-c2cc3cc(CNCc4ccncc4)ccc3o2)ccc2[nH]ccc12 [Compound 400, 4-[(4-methyl-1H-indol-5-yl)amino]-5-(5-{[(pyridin-4-ylmethyl)amino]methyl}-1-benzofuran-2-yl)nicotinonitrile] | 2 |
| Cc1c(Nc2c(C#N)cncc2-c2ccc(CN3CCOCC3)o2)ccc2[nH]ccc12 [Compound 401, 4-[(4-methyl-1H-indol-5-yl)amino]-5-[5-(morpholin-4-ylmethyl)-2-furyl]nicotinonitrile] | 8 |
